Measurements taken from patent US8299048B2, “Hexahydrocyclopentyl[f]indazole sulfonamides and derivatives thereof as selective glucocorticoid receptor modulators” (Merck Sharp & Dohme Corp., priority 2008, dated 2012).
Where two headings read alike, the source gives them in different places.

Biological target: T1, human GR (Homo sapiens, UniProt P04150)
T1 sequence (P04150 1-777): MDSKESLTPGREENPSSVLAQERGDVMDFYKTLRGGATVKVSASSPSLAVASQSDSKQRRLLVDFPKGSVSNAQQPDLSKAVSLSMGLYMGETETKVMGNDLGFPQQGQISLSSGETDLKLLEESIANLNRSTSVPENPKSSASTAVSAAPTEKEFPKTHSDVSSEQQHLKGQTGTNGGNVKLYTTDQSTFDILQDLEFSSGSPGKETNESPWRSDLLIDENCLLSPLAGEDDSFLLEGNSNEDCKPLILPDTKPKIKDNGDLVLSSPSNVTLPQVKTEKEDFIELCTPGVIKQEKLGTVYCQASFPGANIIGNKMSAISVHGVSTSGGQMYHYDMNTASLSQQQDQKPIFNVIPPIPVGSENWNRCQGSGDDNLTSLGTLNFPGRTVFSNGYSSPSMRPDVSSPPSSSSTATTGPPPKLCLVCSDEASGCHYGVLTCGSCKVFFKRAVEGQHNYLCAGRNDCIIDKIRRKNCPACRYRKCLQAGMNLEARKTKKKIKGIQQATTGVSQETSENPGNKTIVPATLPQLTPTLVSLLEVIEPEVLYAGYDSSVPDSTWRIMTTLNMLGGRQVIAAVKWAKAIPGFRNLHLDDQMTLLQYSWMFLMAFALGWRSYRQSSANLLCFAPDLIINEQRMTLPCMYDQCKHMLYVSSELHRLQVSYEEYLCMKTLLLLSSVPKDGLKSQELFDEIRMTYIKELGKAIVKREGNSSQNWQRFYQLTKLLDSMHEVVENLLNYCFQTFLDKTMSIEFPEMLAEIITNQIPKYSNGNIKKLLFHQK
Assay: Transrepression Assay (GITAR), TNFα-β-lactamase reporter in U937 cells
Format: cell-based
Set-up: U937 cells contain an endogenous glucocorticoid receptor (GR); endogenous in cells; host or cells: U937 cells stably transfected with the TNF-alpha promoter/beta-lactamase reporter
Conditions: for GITAR > GRAMM % SEP: GITAR Emax minus GRAMMER Emax; for EC50: U937 cells, inflection point, read-out: Transrepression U937 Cells GITAR IP
Procedure, shortened: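 U937 cells stably carrying a TNF-α promoter–β-lactamase reporter, with endogenous GR, are preincubated with compound 30–45 min at 37 °C, then stimulated with PMA (5 ng/ml final) and LPS (100 ng/ml final) overnight (~18 hr). β-Lactamase is read with CCF2-AM substrate; repression by 100 nM dexamethasone defines 100%.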

[1] = U-937, U937 cells, maximum activity, read-out: Transrepression U937 Cells GITAR Emax
[2] = U-937, activity repressed by 100 nM dexamethasone alone set as 100%, read-out: maximal activity in the transrepression (GITAR) assay

| SMILES | GITAR > GRAMM % SEP [%] | EC50 [nM] | Emax [1] [%] | Emax [2] [%] |
| --- | --- | --- | --- | --- |
| Cc1noc(C)c1S(=O)(=O)N(CCCc1ccccc1)C[C@H]1CCC2=Cc3c(cnn3-c3ccc(F)cc3)C[C@@]21C [Example 194, N-{[(4αR,5S)-1-(4-fluorophenyl)-4α-methyl-1,4,4α,5,6,7-hexahydrocyclopenta[f]indazol-5-yl]methyl}-3,5-dimethyl-N-(3-phenylpropyl)isoxazole-4-sulfonamide] | 14.4 | 291 | 56.2 | > 5 |
| C[C@]12Cc3cnn(-c4ccc(F)cc4)c3C=C1CC[C@@H]2CN(CCCc1ccccc1)S(=O)(=O)c1ccccc1F [Example 195, 2-fluoro-N-{[(4αR,5S)-1-(4-fluorophenyl)-4α-methyl-1,4,4α,5,6,7-hexahydrocyclopenta[f]indazol-5-yl]methyl}-N-(3-phenylpropyl)benzenesulfonamide] | 17.1 | 486 | 30 | > 5 |
| C[C@]12Cc3cnn(-c4ccc(F)cc4)c3C=C1CC[C@@H]2CN(CCc1ccccn1)S(=O)(=O)Cc1ccccc1C(N)=O [Example 196, 2-({[{[(4αR,5S)-1-(4-fluorophenyl)-4α-methyl-1,4,4α,5,6,7-hexahydrocyclopenta[f]indazol-5-yl]methyl}(2-pyridin-2-ylethyl)amino]sulfonyl}methyl)benzamide] | 3.7 | 387 | 40.3 | > 5 |
| CC([C@H]1CCC2=Cc3c(cnn3-c3ccc(F)cc3)C[C@@]21C)N(CCc1ccccn1)S(=O)(=O)Cc1cccnc1 (stereo partly drawn) [Example 197, N-{1-[(4αR)-1-(4-fluorophenyl)-4α-methyl-1,4,4α,5,6,7-hexahydrocyclopenta[f]indazol-5-yl]ethyl}-1-pyridin-3-yl-N-(2-pyridin-2-ylethyl)methanesulfonamide] | 1.8 | 1040 | 45.5 | > 5 |
| C[C@]12Cc3cnn(-c4ccc(F)cc4)c3C=C1CC[C@@H]2CN(CCO)S(=O)(=O)Cc1ccccc1C(N)=O [Example 198, 2-({[{[(4αR,5S)-1-(4-fluorophenyl)-4α-methyl-1,4,4α,5,6,7-hexahydrocyclopenta[f]indazol-5-yl]methyl}(2-hydroxyethyl)amino]sulfonyl}methyl)benzamide] | 7.3 | 1150 | 15.5 | > 5 |
| CC(C)(O)CN(C[C@H]1CCC2=Cc3c(cnn3-c3ccc(F)cc3)C[C@@]21C)S(=O)(=O)c1ccccc1F [Example 199, 2-fluoro-N-{[(4αR,5S)-1-(4-fluorophenyl)-4α-methyl-1,4,4α,5,6,7-hexahydrocyclopenta[f]indazol-5-yl]methyl}-N-(2-hydroxy-2-methylpropyl)benzenesulfonamide] | 22.2 | 506 | 80.8 | > 5 |
| C[C@]12Cc3cnn(-c4ccc(F)cc4)c3C=C1CC[C@@H]2CN(CC1(O)CC1)S(=O)(=O)c1ccccc1F [Example 200, 2-fluoro-N-{[(4αR,5S)-1-(4-fluorophenyl)-4α-methyl-1,4,4α,5,6,7-hexahydrocyclopenta[f]indazol-5-yl]methyl}-N-[(1-hydroxycyclopropyl)methyl]benzenesulfonamide] | 28.4 | 308 | 85.9 | > 5 |
| C[C@]12Cc3cnn(-c4ccc(F)cc4)c3C=C1CC[C@@H]2CN(CC1(O)CCCCC1)S(=O)(=O)c1ccccc1F [Example 201, 2-fluoro-N-{[(4αR,5S)-1-(4-fluorophenyl)-4α-methyl-1,4,4α,5,6,7-hexahydrocyclopenta[f]indazol-5-yl]methyl}-N-[(1-hydroxycyclohexyl)methyl]benzenesulfonamide] | 21.7 | 486 | 69.5 | > 5 |
